Results on eleven compounds are retold here after patent US20240226100A1, “CONTROL OF PROTEIN EXPRESSION WITH TMP-PROTAC COMPOUNDS” (THE TRUSTEES OF THE UNIVERSITY OF PENNSYLVANIA, priority 2021, published 2024).

Structures can show the parent of a compound that is named as a salt. Where a SMILES comes first, the peptide text is derived from it. The star is where a group is joined. Cbz = O=C(OCc1ccccc1)*

For data set [1], the system named is eDHFR-YFP. The data set is described as follows: Inhibitor test in HEK293T eDHFR-YFP+ cells, Western blot. It is filed as cell-based, Escherichia coli. To be noted: inhibitor pre-incubated 1 h, then 100 nM 7c for 12 h. As for the experimental part:
Cells were then isolated as previously described and prepared for Western blot analysis. For readout by flow cytometry, 3×10^5 HEK293T^eDHFR-YFP+ cells were seeded in a clear (Falcon) 12-well plate (5×10^5 cells/well) in complete media and the cells were treated as described above the following day. Cells were washed, trypsinized, and collected following total of 13 h of incubation, and their YFP expression was analyzed on flow cytometer (BD).

Data set [2] has as its system eDHFR-YFP. The data set is described as follows: Time and dose-dependent degradation of YFP in Jurkat-DYL / Jurkat eDHFR-YFP+ cells, flow cytometry. It is filed as cell-based, Escherichia coli. To be noted: Jurkat-DYL; 4, 8 and 18 h incubation, varying doses. As to the method: Likewise, Jurkat eDHFR-YFP (Jurkat^eDHFR-YFP+) cells are seeded in clear (Falcon) 12-well plates (3×10^5 cells/well) in complete media. […]

Data set [3] concerns DHFR-YFP (DY) direct fusion protein. The data set is described as follows: Degradation mechanism in Jurkat-DYL cells pre-treated with epoxomicin or hydroxychloroquine sulfate, flow cytometry. The data set is classed as cell-based, Escherichia coli. To be noted: Jurkat-DYL pre-treated with DMSO, epoxomicin or hydroxychloroquine sulfate 2 h, then compound 4 h. As for the experimental part:
In FIG. 2, flow cytometric analysis is used to measure Jurkat-DYL cells expressing DHFR-YFP (DY) direct fusion protein pre-treated with DMSO, epoxomicin (EPOX), or hydroxychloroquine sulfate (HCS) for 2 hours before DMSO or compound 7b treatment for 4 hours.

In data set [4] the test system is eDHFR-YFP. As to the kind of experiment: Degradation of eDHFR-YFP in HEK293T eDHFR-YFP+ cells, Western blot with anti-YFP antibody. It is filed as cell-based, Escherichia coli. To be noted: 24 h. As to the method:
HEK293T eDHFR-YFP (HEK293T^eDHFR-YFP+) and OVCAR8 eDHFR-luc (OVCAR8^eDHFR-luc+) cells are prepared in clear (Falcon) 6-well plates (5×10^5 cells/well) and cultured in complete media. Compound 7c is solubilized in 100% DMSO to 10 mM. 10 mM 7c is serially diluted in sterile water accordingly and each dose administered to cells in fresh media at equal volume, such that the final concentration of DMSO in cell media is <1%. Once incubation with drug is completed, media is removed by vacuum, cells are washed with phosphate-buffered saline (PBS), trypsonized at 37° C., quenched with media, and centrifuged (Thermo Scientific Sorvall Legend X1R) at 1000 RPM for 5 minutes. Media and cell debris are removed by vacuum.
Once cells are isolated by centrifugation (Thermo Scientific Sorvall Legend X1R), they are solubilized in radioimmunoprecipitation assay (RIPA) lysis buffer with protease inhibitor. Cell lysate is incubated on ice for 30 minutes, sonicated, then centrifuged (Thermo Scientific Sorvall Legend Micro 21R) at 14,800 RPM for 10 minutes. Supernatant is removed and transferred to a new Eppendorf tube.
Using Thermo Scientific bicinchoninic acid (BCA) assay kit, total cell protein is quantified and compared to bovine serum albumin (BSA) standards ranging from 10 to 0.625 mg/mL. Cell lysate is aliquoted into a 96-well clear plate (Falcon) and mixed with reagent and shaken at 37° C. for 30 minutes. Samples are analyzed by plate reader (ThermoFisher Varioskan Plusplate), where absorbance is measured at […]. A calibration curve is developed, and samples are prepared to equal mass (mg) of total protein for gel electrophoresis.
Cell lysate is prepared by mixing with 4 uL of loading dye and PBS to give equal total protein and equal total volume across all samples. Each sample is loaded into a NuPage gel (4-12% Bis-tris) and developed in NuPage MES Running Buffer. Once complete, the gel is removed and prepared for protein transfer to membrane. […]
In general terms: Immunoblotting shows a protein as a band on a membrane.

The test system of data set [5] is FAP CAR-eDHFR direct fusion (DF). The data set is described as follows: Dose response of surface CAR expression in primary human FAP-eDHFR DF CAR T cells, flow cytometry. To be noted: different doses, 24 hours. It is filed as cell-based. As to the method:
Generated CAR T cells were pelleted, resuspended in 2% BSA in PBS (Invitrogen), and incubated with Alexa Fluor® 647 AffiniPure F(ab′2) fragment goat anti-mouse IgG (Jackson ImmunoResearch Laboratories) for 30 minutes at room temperature. Stained cells were washed 3 times with PBS, and were analyzed on a flow cytometer (LSR II, BD Biosciences) for CAR and/or BFP expression. All flow data were analyzed using FlowJo software (FlowJo).
Following incubation, the cells were washed and stained with Alexa Fluor® 647 AffiniPure F(ab′2) fragment goat anti-mouse IgG (Jackson ImmunoResearch Laboratories) as described under “Flow Cytometry”, and their surface expression was analyzed on a flow cytometer (LSR II, BD Biosciences).
Data plotted as raw CAR stain fluorescence is shown in the left panel and percent of maximum CAR expression is shown in the right panel.
Values are reported as percent of maximum CAR expression (i.e. relative to CAR T cells that were treated with vehicle control). Each color represents a different donor (n=3).
(In general: A flow cytometer gives signals particle by particle.)

Data set [6] has the same test system. As to the kind of experiment: Inhibitor test in primary human FAP-eDHFR DF CAR T cells, flow cytometry. The data set is classed as cell-based. The following applies: inhibitor pre-incubated 1 hour, then 100 nM 7c for 4 hours. As for the experimental part:
Following pre-incubation, either 100 nM 7c or vehicle control DMSO (Sigma) was added to the wells, and cells were incubated with the drug for another 4 hours. Following incubation, the cells were washed and their surface CAR expression was assessed on a flow cytometer (BD Biosciences).
Following pre-incubation, the cells were incubated with 100 nM 7c for 4 hours and their CAR expression was assessed on a flow cytometer.

The subject of data set [7] is FAP-eDHFR DF CAR T cells. To be noted: 10:1 E:T ratio overnight, I45 huFAP target cells.
For data set [8], the system named is FAP-eDHFR DF CAR T cells. The following applies: 1 hour at 37° C., with or without 5 μM unlabeled TMP.
Procedure: 3×10^6 CAR T cells were incubated with 6×10^6 counts per minute (cpm) of [^18F]FPTMP for 60 minutes in the presence or absence of unlabeled 5 μM TMP. Following incubation, cells were centrifuged at 1200 rpm and washed 3 times with cold PBS (Corning). After the third wash, the cell pellet was resuspended in 900 μL of PBS and split into 3 technical replicates of 300 μL. Radiotracer uptake was quantified on a gamma counter (PerkinElmer) and analyzed by dividing counts by the injected dose (ID) of [^18F]FPTMP. The final uptake was reported as a ratio between % ID normalized per 10^6 cells (% ID/10^6 cells) of the [^18F]FPTMP group and the blocked control (i.e. cells that were incubated with both unlabeled TMP and [^18F]FPTMP).

In the case of `Cn1cnc(N)c2ncnc1-2` [3-Methyladenine], the “effect of inhibitor on eDHFR-YFP degradation induced by 7c” value (shortened to “effect of inhibitor … by 7c”) with eDHFR-YFP [1] is reported as “does not”.

As to `COc1cc(Cc2cnc(N)nc2N)cc(OC)c1OCC(=O)NCCOCCOCCNc1cccc2c1C(=O)N(C1CCC(=O)NC1=O)C2=O` (centres unmarked) [Compound 7a, 2-(4-((2,4-diaminopyrimidin-5-yl)methyl)-2,6-dimethoxyphenoxy)-N-(2-(2-(2-((2-(2,6-dioxopiperidin-3-yl)-1,3-dioxoisoindolin-4-yl)amino)ethoxy)ethoxy)ethyl)acetamide], the “degradation of YFP (eDHFR fusion protein)” value (shortened to “degradation of YFP”) in the data set on eDHFR-YFP [2] was “degrade eDHFR fusion proteins to low/no functional expression”.

Turning to `COc1cc(Cc2cnc(N)nc2N)cc(OC)c1OCCCC(=O)NCCOCCNc1cccc2c1C(=O)N(C1CCC(=O)NC1=O)C2=O` (centres unmarked) [Compound 7b, 4-(4-((2,4-diaminopyrimidin-5-yl)methyl)-2,6-dimethoxyphenoxy)-N-(2-(2-((2-(2,6-dioxopiperidin-3-yl)-1,3-dioxoisoindolin-4-yl)amino)ethoxy)ethyl)butanamide], the “degradation of YFP” value with eDHFR-YFP [2] is on record as “degrade eDHFR fusion proteins to low/no functional expression”. Besides, in data set [3], the “mechanism of degradation of eDHFR-POI” value is “primarily via a proteosome-mediated mechanism of degradation”.

As for `COc1cc(Cc2cnc(N)nc2N)cc(OC)c1OCCCC(=O)NCCOCCOCCOCCOCCOCCOCCNc1cccc2c1C(=O)N(C1CCC(=O)NC1=O)C2=O` (centres unmarked) [Compound 7e, 4-(4-((2,4-diaminopyrimidin-5-yl)methyl)-2,6-dimethoxyphenoxy)-N-(20-((2-(2,6-dioxopiperidin-3-yl)-1,3-dioxoisoindolin-4-yl)amino)-3,6,9,12,15,18-hexaoxaicosyl)butanamide], the “degradation of YFP” value in the data set with eDHFR-YFP [2] is given as “degrade eDHFR fusion proteins to low/no functional expression”. Also, the “degradation of eDHFR-YFP in dose response screen” value in the data set on eDHFR-YFP [4] is reported as “no degradation”.

Consider `COc1cc(Cc2cnc(N)nc2N)cc(OC)c1OCCCC(=O)NCCOCCOCCNc1cccc2c1C(=O)N(C1CCC(=O)N(C)C1=O)C2=O` (centres unmarked) [Compound 7f, 4-(4-((2,4-diaminopyrimidin-5-yl)methyl)-2,6-dimethoxyphenoxy)-N-(2-(2-(2-((2-(1-methyl-2,6-dioxopiperidin-3-yl)-1,3-dioxoisoindolin-4-yl)amino)ethoxy)ethoxy)ethyl)butanamide], for which the “downregulation of surface CAR expression in dose response assay” value in data set [5] is given as “does not result in downregulation of CAR expression from their surface”. Besides, the “eDHFR-YFP degradation at 100 nM” value with eDHFR-YFP [4] (100 nM) is listed as “does not induce eDHFR-YFP degradation”.

Take `CC[C@H](C)[C@H](NC(=O)[C@H]([C@@H](C)CC)N(C)C(C)=O)C(=O)N[C@H](C(=O)N[C@@H](CC(C)C)C(=O)[C@@]1(C)CO1)[C@@H](C)O` [Epoxomicin]: the “effect of inhibitor … by 7c” value with eDHFR-YFP [1] is recorded as “blocks degradation induced by 7c”. The “effect of inhibitor on TMP-POM 7c-mediated degradation of CAR” value (from here on “effect of inhibitor … of CAR”) in data set [6] is recorded as “blocked TMP-POM 7c-mediated degradation of CAR”.

In the case of `CCN(CCO)CCCC(C)Nc1ccnc2cc(Cl)ccc12` (centres unmarked) [Hydroxychloroquine HCl], the “effect of inhibitor … by 7c” value with eDHFR-YFP [1] is “does not”.

Regarding `CC(C)C[C@@H](C=O)NC(=O)[C@H](CC(C)C)NC(=O)[C@H](CC(C)C)NC(=O)OCc1ccccc1` [MG132] (Cbz-Leu-Leu-Leu-aldehyde), in data set [6], the “effect of inhibitor … of CAR” value is reported as “blocked TMP-POM 7c-mediated degradation of CAR”.

`NS(=O)(=O)OC[C@@H]1C[C@@H](n2ccc3c(N[C@H]4CCc5ccccc54)ncnc32)C[C@@H]1O` [MLN4924]: the “effect of inhibitor … by 7c” value in the data set on eDHFR-YFP [1] is reported as “blocks degradation induced by 7c”. The “effect of inhibitor … of CAR” value in data set [6] is given as “blocked TMP-POM 7c-mediated degradation of CAR”.

In the case of `COc1cc(Cc2cnc(N)nc2N)cc(OC)c1OCCC[18F]` [[18F]FPTMP, [^18F]Fluoropropyl-Trimethoprim], the “effect of radiotracer exposure on CAR T cell cytotoxic function” value in the data set with FAP-eDHFR DF CAR T cells [7] is “does not affect the effectors' ability to signal and kill target cells”. In the data set on FAP-eDHFR DF CAR T cells [8], the “in vitro uptake of radiolabeled TMP” value is “preserved in vitro uptake”.

For `CO/C1=C\C(C)=C\[C@@H](C)[C@@H](O)[C@@H](C)C/C(C)=C/C=C/[C@H](OC)[C@@H]([C@@H](C)[C@@H](O)[C@H](C)[C@@]2(O)C[C@@H](O)[C@H](C)[C@@H](C(C)C)O2)OC1=O` [bafilomycin], in data set [6], the “effect of inhibitor … of CAR” value is on record as “had no impact on TMP-POM 7c function”.
